Paper PMC9569420 (Communications Biology, 2022)

Assays:
[1] = target: T1, mTOR/FRAP1 (Homo sapiens, UniProt P42345); assay: HotSpot kinase assay; type: biochemical; settings: read-out: % Enzyme Activity (relative to DMSO controls)
T1 construct: purchased Reaction Biology Corporation

[2] = target: T2, TYK1/LTK (Homo sapiens, UniProt P29376); assay: HotSpot kinase assay; type: biochemical; settings: read-out: % Enzyme Activity (relative to DMSO controls)
T2 construct: purchased Reaction Biology Corporation

[3] = target: T3, MEKK6 (Homo sapiens, UniProt O95382); assay: HotSpot kinase assay; type: biochemical; settings: read-out: % Enzyme Activity (relative to DMSO controls)
T3 construct: purchased Reaction Biology Corporation

[4] = target: T4, JNK2 (Homo sapiens, UniProt P45984); assay: HotSpot kinase assay; type: biochemical; settings: read-out: % Enzyme Activity (relative to DMSO controls)
T4 construct: purchased Reaction Biology Corporation

[5] = target: T5, MEKK1 (Homo sapiens, UniProt Q13233); assay: HotSpot kinase assay; type: biochemical; settings: read-out: % Enzyme Activity (relative to DMSO controls)
T5 construct: purchased Reaction Biology Corporation

[6] = target: T6, PIM3 (Homo sapiens, UniProt Q86V86); assay: HotSpot kinase assay; type: biochemical; settings: read-out: % Enzyme Activity (relative to DMSO controls)
T6 construct: purchased Reaction Biology Corporation

[7] = target: T7, RIPK4 (Homo sapiens, UniProt P57078); assay: HotSpot kinase assay; type: biochemical; settings: read-out: % Enzyme Activity (relative to DMSO controls)
T7 construct: purchased Reaction Biology Corporation

[8] = target: T8, GRK1 (Homo sapiens, UniProt Q15835); assay: HotSpot kinase assay; type: biochemical; settings: read-out: % Enzyme Activity (relative to DMSO controls)
T8 construct: purchased Reaction Biology Corporation

[9] = target: T9, STK16 (Homo sapiens, UniProt O75716); assay: HotSpot kinase assay; type: biochemical; settings: read-out: % Enzyme Activity (relative to DMSO controls)
T9 construct: purchased Reaction Biology Corporation

[10] = target: T10, CAMK2g (Homo sapiens, UniProt Q13555); assay: HotSpot kinase assay; type: biochemical; settings: read-out: % Enzyme Activity (relative to DMSO controls)
T10 construct: purchased Reaction Biology Corporation

[11] = target: T11, PKCg (Homo sapiens, UniProt P05129); assay: HotSpot kinase assay; type: biochemical; settings: read-out: % Enzyme Activity (relative to DMSO controls)
T11 construct: purchased Reaction Biology Corporation

[12] = target: T12, CAMK1b (Homo sapiens, UniProt Q6P2M8); assay: HotSpot kinase assay; type: biochemical; settings: read-out: % Enzyme Activity (relative to DMSO controls)
T12 construct: purchased Reaction Biology Corporation

[13] = target: T13, FGFR1 (Homo sapiens, UniProt P11362); assay: HotSpot kinase assay; type: biochemical; settings: read-out: % Enzyme Activity (relative to DMSO controls)
T13 construct: purchased Reaction Biology Corporation

[14] = target: T14, p70S6Kb/RPS6KB2 (Homo sapiens, UniProt Q9UBS0); assay: HotSpot kinase assay; type: biochemical; settings: read-out: % Enzyme Activity (relative to DMSO controls)
T14 construct: purchased Reaction Biology Corporation

[15] = target: T15, ALK1/ACVRL1 (Homo sapiens, UniProt P37023); assay: HotSpot kinase assay; type: biochemical; settings: read-out: % Enzyme Activity (relative to DMSO controls)
T15 construct: purchased Reaction Biology Corporation

[16] = system: PtdS and Akt; assay: translocation of PtdS and Akt to the outer leaflet (microscopy), HSV-2 infected HaCat; type: cell-based, human; settings: 10µM
[17] = target: T16, ABL2/ARG (Homo sapiens, UniProt P42684); assay: HotSpot kinase assay; type: biochemical; settings: read-out: % Enzyme Activity (relative to DMSO controls)
T16 construct: purchased Reaction Biology Corporation

[18] = target: T17, GSK3a (Homo sapiens, UniProt P49840); assay: HotSpot kinase assay; type: biochemical; settings: read-out: % Enzyme Activity (relative to DMSO controls)
T17 construct: purchased Reaction Biology Corporation

[19] = target: T18, TAOK1 (Homo sapiens, UniProt Q7L7X3); assay: HotSpot kinase assay; type: biochemical; settings: read-out: % Enzyme Activity (relative to DMSO controls)
T18 construct: purchased Reaction Biology Corporation

[20] = target: T19, CAMK2a (Homo sapiens, UniProt Q9UQM7); assay: HotSpot kinase assay; type: biochemical; settings: read-out: % Enzyme Activity (relative to DMSO controls)
T19 construct: purchased Reaction Biology Corporation

[21] = target: T20, CK2a2 (Homo sapiens, UniProt P19784); assay: HotSpot kinase assay; type: biochemical; settings: read-out: % Enzyme Activity (relative to DMSO controls)
T20 construct: purchased Reaction Biology Corporation

[22] = system: VSV-S; type: cell-based, VSV pseudotyped with SARS-CoV-2 spike
[23] = target: T21, ROCK2 (Homo sapiens, UniProt O75116); assay: HotSpot kinase assay; type: biochemical; settings: read-out: % Enzyme Activity (relative to DMSO controls)
T21 construct: purchased Reaction Biology Corporation

[24] = target: T22, ERK7/MAPK15 (Homo sapiens, UniProt Q8TD08); assay: HotSpot kinase assay; type: biochemical; settings: read-out: % Enzyme Activity (relative to DMSO controls)
T22 construct: purchased Reaction Biology Corporation

[25] = target: T23, ROCK1 (Homo sapiens, UniProt Q13464); assay: HotSpot kinase assay; type: biochemical; settings: read-out: % Enzyme Activity (relative to DMSO controls)
T23 construct: purchased Reaction Biology Corporation

[26] = target: T24, ERK5/MAPK7 (Homo sapiens, UniProt Q13164); assay: HotSpot kinase assay; type: biochemical; settings: read-out: % Enzyme Activity (relative to DMSO controls)
T24 construct: purchased Reaction Biology Corporation

[27] = target: T25, EPHB2 (Homo sapiens, UniProt P29323); assay: HotSpot kinase assay; type: biochemical; settings: read-out: % Enzyme Activity (relative to DMSO controls)
T25 construct: purchased Reaction Biology Corporation

[28] = system: MDCK-MDR1 cell; settings: 5 µM
[29] = target: T26, KSR2 (Homo sapiens, UniProt Q6VAB6); assay: biochemical; settings: read-out: % Enzyme Activity (relative to DMSO controls)
T26 construct: purchased Reaction Biology Corporation

[30] = target: T27, TYK2 (Homo sapiens, UniProt P29597); assay: HotSpot kinase assay; type: biochemical; settings: read-out: % Enzyme Activity (relative to DMSO controls)
T27 construct: purchased Reaction Biology Corporation

[31] = target: T28, TNIK (Homo sapiens, UniProt Q9UKE5); assay: HotSpot kinase assay; type: biochemical; settings: read-out: % Enzyme Activity (relative to DMSO controls)
T28 construct: purchased Reaction Biology Corporation

[32] = target: T29, PKG1a (Homo sapiens, UniProt Q13976); assay: HotSpot kinase assay; type: biochemical; settings: read-out: % Enzyme Activity (relative to DMSO controls)
T29 construct: purchased Reaction Biology Corporation

[33] = system: HSV-2(G); assay: HSV plaque assay, primary vaginal cells; type: cell-based; settings: Human alphaherpesvirus 2, read-out: inhibition of HSV-2 infection
Method: After 48 h incubation, plaques were counted by immunoassay using an anti–human IgG antibody peroxidase conjugate (PA1-86064, Thermo Fisher)[33]. […] Western blots were prepared and probed for gD as a marker of bound virus and β-actin as a control.

[34] = target: T30, MSSK1/STK23 (Homo sapiens, UniProt Q9UPE1); assay: HotSpot kinase assay; type: biochemical; settings: read-out: % Enzyme Activity (relative to DMSO controls)
T30 construct: purchased Reaction Biology Corporation

[35] = target: T31, SRPK1 (Homo sapiens, UniProt Q96SB4); assay: HotSpot kinase assay; type: biochemical; settings: read-out: % Enzyme Activity (relative to DMSO controls)
T31 construct: purchased Reaction Biology Corporation

[36] = target: T32, BRAF (Homo sapiens, UniProt P15056); assay: HotSpot kinase assay; type: biochemical; settings: read-out: % Enzyme Activity (relative to DMSO controls)
T32 construct: purchased Reaction Biology Corporation

[37] = target: T33, MKK7 (Homo sapiens, UniProt O14733); assay: HotSpot kinase assay; type: biochemical; settings: read-out: % Enzyme Activity (relative to DMSO controls)
T33 construct: purchased Reaction Biology Corporation

[38] = target: T34, AKT1 (Homo sapiens, UniProt P31749); assay: biochemical
T34 construct: purchased Reaction Biology Corporation

[39] = target: T35, YSK4/MAP3K19 (Homo sapiens, UniProt Q56UN5); assay: HotSpot kinase assay; type: biochemical; settings: read-out: % Enzyme Activity (relative to DMSO controls)
T35 construct: purchased Reaction Biology Corporation

[40] = target: T36, CK1g3 (Homo sapiens, UniProt Q9Y6M4); assay: HotSpot kinase assay; type: biochemical; settings: read-out: % Enzyme Activity (relative to DMSO controls)
T36 construct: purchased Reaction Biology Corporation

[41] = target: T37, STK25/YSK1 (Homo sapiens, UniProt O00506); assay: HotSpot kinase assay; type: biochemical; settings: read-out: % Enzyme Activity (relative to DMSO controls)
T37 construct: purchased Reaction Biology Corporation

T34 sequence (P31749 whole entry): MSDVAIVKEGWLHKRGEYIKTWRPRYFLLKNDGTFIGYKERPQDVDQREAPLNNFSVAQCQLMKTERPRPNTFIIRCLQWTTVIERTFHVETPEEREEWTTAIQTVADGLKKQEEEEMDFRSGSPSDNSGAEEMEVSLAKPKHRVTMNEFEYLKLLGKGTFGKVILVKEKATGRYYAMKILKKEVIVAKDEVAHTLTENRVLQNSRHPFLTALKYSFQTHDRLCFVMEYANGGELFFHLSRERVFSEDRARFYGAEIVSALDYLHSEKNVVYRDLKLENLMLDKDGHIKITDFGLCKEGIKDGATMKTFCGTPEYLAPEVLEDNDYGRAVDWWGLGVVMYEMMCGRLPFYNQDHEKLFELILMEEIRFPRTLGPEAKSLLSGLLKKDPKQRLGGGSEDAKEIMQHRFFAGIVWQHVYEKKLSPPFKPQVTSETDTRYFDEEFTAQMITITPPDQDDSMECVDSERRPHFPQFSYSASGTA
T20 sequence (P19784 whole entry): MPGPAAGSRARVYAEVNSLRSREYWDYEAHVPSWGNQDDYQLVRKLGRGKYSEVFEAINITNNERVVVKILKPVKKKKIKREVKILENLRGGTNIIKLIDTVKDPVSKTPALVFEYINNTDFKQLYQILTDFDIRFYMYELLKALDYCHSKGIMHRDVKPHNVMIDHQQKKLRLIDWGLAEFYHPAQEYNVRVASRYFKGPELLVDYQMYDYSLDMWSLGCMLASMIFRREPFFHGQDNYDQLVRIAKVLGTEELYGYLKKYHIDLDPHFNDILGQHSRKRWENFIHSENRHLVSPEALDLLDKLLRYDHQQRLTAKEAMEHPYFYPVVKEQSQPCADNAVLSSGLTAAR
T3 sequence (O95382 whole entry): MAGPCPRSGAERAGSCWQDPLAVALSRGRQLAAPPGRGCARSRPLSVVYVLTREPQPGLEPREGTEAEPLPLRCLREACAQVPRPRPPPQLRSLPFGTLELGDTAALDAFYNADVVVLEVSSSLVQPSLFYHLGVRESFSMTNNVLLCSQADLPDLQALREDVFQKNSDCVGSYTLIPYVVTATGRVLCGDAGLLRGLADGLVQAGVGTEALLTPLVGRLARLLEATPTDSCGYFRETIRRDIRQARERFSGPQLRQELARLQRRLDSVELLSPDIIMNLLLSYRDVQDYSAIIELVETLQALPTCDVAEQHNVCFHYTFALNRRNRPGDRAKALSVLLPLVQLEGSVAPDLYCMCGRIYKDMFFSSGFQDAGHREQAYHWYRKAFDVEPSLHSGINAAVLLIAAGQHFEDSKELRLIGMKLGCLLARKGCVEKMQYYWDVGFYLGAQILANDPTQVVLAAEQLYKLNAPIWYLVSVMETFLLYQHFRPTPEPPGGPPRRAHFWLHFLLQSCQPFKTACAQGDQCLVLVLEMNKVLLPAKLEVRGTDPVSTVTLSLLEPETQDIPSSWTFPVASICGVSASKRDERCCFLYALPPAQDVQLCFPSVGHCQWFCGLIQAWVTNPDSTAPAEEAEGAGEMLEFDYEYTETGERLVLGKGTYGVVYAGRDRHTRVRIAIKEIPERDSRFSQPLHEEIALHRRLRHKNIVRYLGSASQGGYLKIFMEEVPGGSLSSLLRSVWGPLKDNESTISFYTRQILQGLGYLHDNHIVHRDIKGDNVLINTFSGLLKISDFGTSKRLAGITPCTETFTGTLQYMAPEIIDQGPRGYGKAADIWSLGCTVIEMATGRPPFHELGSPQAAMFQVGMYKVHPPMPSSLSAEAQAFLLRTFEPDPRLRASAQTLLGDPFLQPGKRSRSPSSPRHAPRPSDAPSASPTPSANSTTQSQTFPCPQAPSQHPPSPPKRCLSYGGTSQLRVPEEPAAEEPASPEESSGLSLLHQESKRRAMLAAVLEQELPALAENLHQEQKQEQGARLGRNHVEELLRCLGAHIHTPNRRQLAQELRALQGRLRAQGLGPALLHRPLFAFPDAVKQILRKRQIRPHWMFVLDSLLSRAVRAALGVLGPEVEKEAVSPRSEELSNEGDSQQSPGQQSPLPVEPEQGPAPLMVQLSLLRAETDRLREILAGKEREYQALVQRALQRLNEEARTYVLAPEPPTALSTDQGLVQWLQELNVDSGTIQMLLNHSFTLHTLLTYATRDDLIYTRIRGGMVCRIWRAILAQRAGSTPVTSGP
T14 sequence (Q9UBS0 whole entry): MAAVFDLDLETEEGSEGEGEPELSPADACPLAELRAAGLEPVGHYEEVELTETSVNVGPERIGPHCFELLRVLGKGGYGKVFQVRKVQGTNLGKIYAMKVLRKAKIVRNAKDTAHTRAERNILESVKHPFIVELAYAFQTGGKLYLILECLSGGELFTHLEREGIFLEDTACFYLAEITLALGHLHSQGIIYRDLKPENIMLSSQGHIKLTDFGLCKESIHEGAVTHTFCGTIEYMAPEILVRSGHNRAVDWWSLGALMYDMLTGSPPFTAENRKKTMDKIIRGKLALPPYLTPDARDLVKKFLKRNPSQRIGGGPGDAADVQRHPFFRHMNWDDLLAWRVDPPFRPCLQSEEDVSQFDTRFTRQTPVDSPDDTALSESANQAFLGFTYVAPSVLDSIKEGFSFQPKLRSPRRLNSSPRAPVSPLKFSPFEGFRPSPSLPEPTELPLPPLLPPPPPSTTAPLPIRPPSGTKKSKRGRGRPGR
T4 sequence (P45984 whole entry): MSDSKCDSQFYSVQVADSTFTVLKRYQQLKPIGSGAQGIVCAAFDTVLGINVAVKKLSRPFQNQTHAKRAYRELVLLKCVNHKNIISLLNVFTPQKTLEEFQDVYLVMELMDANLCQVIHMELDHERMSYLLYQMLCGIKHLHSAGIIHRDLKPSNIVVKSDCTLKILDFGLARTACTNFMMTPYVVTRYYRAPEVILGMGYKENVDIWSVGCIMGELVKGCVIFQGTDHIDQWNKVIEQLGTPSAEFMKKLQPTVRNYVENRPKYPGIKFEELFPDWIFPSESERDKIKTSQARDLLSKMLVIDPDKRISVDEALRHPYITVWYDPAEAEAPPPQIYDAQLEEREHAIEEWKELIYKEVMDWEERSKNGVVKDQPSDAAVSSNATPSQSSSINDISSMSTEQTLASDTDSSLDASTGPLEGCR
T15 sequence (P37023 22-503): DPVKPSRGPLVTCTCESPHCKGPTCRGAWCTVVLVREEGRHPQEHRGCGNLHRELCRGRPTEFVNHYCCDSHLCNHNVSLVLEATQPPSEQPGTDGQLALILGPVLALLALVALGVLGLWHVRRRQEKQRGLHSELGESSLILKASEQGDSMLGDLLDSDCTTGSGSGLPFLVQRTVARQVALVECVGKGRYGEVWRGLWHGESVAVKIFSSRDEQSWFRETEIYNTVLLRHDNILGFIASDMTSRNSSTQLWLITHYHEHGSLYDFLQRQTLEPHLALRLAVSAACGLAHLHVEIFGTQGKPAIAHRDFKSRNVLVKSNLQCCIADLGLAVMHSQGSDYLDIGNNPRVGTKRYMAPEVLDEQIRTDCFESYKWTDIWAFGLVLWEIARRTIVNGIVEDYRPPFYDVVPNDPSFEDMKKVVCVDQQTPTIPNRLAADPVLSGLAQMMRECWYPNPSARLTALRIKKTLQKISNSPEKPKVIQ
T12 sequence (Q6P2M8 whole entry): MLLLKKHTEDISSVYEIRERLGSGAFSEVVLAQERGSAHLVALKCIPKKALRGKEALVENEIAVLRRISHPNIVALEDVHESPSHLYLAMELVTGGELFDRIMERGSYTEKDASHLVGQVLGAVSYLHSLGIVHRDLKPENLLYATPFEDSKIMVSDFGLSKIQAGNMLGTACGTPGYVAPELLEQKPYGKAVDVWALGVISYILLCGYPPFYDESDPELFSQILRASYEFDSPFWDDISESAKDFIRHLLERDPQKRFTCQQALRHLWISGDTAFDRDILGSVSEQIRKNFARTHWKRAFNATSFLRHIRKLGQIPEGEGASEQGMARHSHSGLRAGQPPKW
T25 sequence (P29323 19-1055): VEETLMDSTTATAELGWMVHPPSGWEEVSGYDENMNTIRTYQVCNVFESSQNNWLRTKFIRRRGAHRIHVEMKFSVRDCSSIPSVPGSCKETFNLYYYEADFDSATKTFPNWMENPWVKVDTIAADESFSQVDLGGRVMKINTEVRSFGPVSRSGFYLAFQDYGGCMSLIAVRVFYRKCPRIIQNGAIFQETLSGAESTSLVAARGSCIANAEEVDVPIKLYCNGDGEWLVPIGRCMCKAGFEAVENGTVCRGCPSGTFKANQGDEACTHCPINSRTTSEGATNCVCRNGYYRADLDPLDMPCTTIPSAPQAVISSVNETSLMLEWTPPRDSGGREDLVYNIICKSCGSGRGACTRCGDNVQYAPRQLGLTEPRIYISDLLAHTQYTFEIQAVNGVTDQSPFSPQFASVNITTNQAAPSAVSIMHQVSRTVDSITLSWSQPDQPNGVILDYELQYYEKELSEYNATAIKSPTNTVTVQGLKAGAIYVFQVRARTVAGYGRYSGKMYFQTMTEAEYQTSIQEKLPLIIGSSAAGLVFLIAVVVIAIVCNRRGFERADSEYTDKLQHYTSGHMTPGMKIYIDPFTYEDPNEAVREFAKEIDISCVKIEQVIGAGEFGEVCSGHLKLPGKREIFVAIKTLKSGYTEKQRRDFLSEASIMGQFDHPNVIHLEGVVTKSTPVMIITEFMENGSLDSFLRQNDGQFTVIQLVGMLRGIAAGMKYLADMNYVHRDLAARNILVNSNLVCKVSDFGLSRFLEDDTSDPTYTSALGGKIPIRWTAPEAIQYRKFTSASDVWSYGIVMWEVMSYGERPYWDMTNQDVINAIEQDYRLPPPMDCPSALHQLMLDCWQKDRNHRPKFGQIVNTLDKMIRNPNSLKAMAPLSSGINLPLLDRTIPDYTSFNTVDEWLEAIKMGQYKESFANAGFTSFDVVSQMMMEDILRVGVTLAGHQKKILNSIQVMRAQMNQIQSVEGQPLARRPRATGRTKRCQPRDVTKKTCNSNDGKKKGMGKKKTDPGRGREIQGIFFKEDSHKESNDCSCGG

## CO[C@@H]1[C@H](N(C)C(=O)CCC(=O)NCc2cn(CCCS(=O)(=O)O)nn2)C[C@H]2O[C@]1(C)n1c3ccccc3c3c4c(c5c6ccccc6n2c5c31)C(=O)NC4 [CIMSS]
[1]
  remaining activity at 10 µM: 112%
[2]
  remaining activity at 10 µM: 7.18%
[3]
  remaining activity at 10 µM: 110%
[4]
  remaining activity at 10 µM: 42.3%
[5]
  remaining activity at 10 µM: 67%
[6]
  remaining activity at 10 µM: 2.51%
[7]
  remaining activity at 10 µM: 99.1%
[8]
  remaining activity at 10 µM: 4.7%
[9]
  remaining activity at 10 µM: 10.2%
[10]
  remaining activity at 10 µM: 1.25%
[11]
  remaining activity at 10 µM: 1.77%
[12]
  remaining activity at 10 µM: 59.5%
[13]
  remaining activity at 10 µM: 6.31%
[14]
  remaining activity at 10 µM: 3.38%
[15]
  remaining activity at 10 µM: 70%
[16]
  translocation of PtdS and Akt to the outer leaflet of the plasma membrane: did not block
[17]
  remaining activity at 10 µM: 4.07%
[18]
  remaining activity at 10 µM: 2.72%
[19]
  remaining activity at 10 µM: 6.83%
[20]
  remaining activity at 10 µM: 1.36%
[21]
  remaining activity at 10 µM: 44.6%
[22]
  VSV-S infection: inhibited
[23]
  remaining activity at 10 µM: 12.7%
[24]
  remaining activity at 10 µM: 27.9%
[25]
  remaining activity at 10 µM: 26.2%
[26]
  remaining activity at 10 µM: 84.5%
[27]
  remaining activity at 10 µM: 28.5%
[28]
  Recover %: 96%
[29]
  remaining activity at 10 µM: 108%
[30]
  remaining activity at 10 µM: 6.35%
[31]
  remaining activity at 10 µM: 1.22%
[32]
  remaining activity at 10 µM: 7.02%
[33]
  inhibition at 10 µM: > 75%
[34]
  remaining activity at 10 µM: 67.7%
[35]
  remaining activity at 10 µM: 9.17%
[36]
  remaining activity at 10 µM: 132%
[37]
  remaining activity at 10 µM: 96.2%
[38]; Supplementary Table 1, read-out: IC50 (Molar concentration)
  IC50: 461 nM
[38]; read-out: % Enzyme Activity (relative to DMSO controls), 10µM
  remaining activity at 10 µM: 23.7%
[38]; read-out: inhibition of Akt1
  inhibition at 10 µM: > 75%
[39]
  remaining activity at 10 µM: 3.4%
[40]
  remaining activity at 10 µM: 97.2%
[41]
  remaining activity at 10 µM: 4.17%
